Test results as given in patent EP1561465A2, “Methods of use of fluoroquinolone compounds against bacteria” (LG Life Sciences, Ltd., priority 1999, dated 2001).
Converted amounts (≈) assume the structure as drawn. Like-named read-outs stand apart in the source and are kept apart here.

Key:
Morganella morganii = assay: MIC by NCCLS broth microdilution, 1100 Japanese clinical isolates 1997-1998; assay type: cell-based; conditions: Morganella morganii (n=40)
K. pneumoniae [1] = assay: MIC and MBC by microdilution in Mueller-Hinton broth, uropathogens; assay type: cell-based
Description: (§1) MICs and MBCs were determined by a microdilution method with Mueller-Hinton broth. An inoculum of 1.3-9.4 x 10^5 colony forming units (CFU) per ml was used.
(§2) Strains included a reference strain E. coli ATCC 25922, susceptible to nalidixic acid (Nal-S) and the following clinical isolates obtained from complicated UTI patients: E. coli (resistant to nalidixic acid), K. pneumoniae, P. mirabilis , P. aeruginosa, […] (3 strains) and Enterococcus faecalis (2 strains).

P. aeruginosa [2] = assay: as above; assay type: cell-based
Description: as §1, §2

S. aureus [3] = assay: as above; assay type: cell-based; conditions: Staphylococcus aureus
Description: as §1, §2

E. faecalis [4] = assay: as above; assay type: cell-based; conditions: Enterococcus faecalis
Description: as §1, §2

P. mirabilis [5] = assay: as above; assay type: cell-based
Description: as §1, §2

S. aureus [6] = assay: Urinary bactericidal titers (UBT) and AUBTC of volunteers' urine; assay type: cell-based; conditions: urine after gemifloxacin 320 mg or ofloxacin 400 mg
Enterobacter spp. = assay: MIC by agar dilution (NCCLS), 322 nosocomial Gram negative isolates, Athens 1998; assay type: cell-based; conditions: n = 57 isolates
Serratia marcescens = assay: MIC by NCCLS broth microdilution, 1100 Japanese clinical isolates 1997-1998; assay type: cell-based
P. mirabilis [7] = assay: Urinary bactericidal titers (UBT) and AUBTC of volunteers' urine; assay type: cell-based; conditions: P. mirabilis (16) Laboratory No. 414; urine after gemifloxacin 320 mg or ofloxacin 400 mg
P. aeruginosa [8] = assay: as above; assay type: cell-based; conditions: P. aeruginosa (16) Laboratory No. 568; urine after gemifloxacin 320 mg or ofloxacin 400 mg
K. pneumoniae [9] = assay: as above; assay type: cell-based; conditions: K. pneumoniae (16) Laboratory No. 595; urine after gemifloxacin 320 mg or ofloxacin 400 mg
Streptococcus pneumoniae = assay: MIC by E-test (broth microdilution for gemifloxacin), 107 pneumococcal carrier isolates, Athens 1998; assay type: cell-based; conditions: E-test; for MIC Range: in µg/mL (unit assumed); for MIC50 / MIC90: Streptococcus pneumoniae; for MIC50: read-out: MIC50; for MIC90: read-out: MIC90
Description: Susceptibility testing was performed by agar dilution or epsilometer method (E-test), as recommended by the NCCLS. […] The susceptibility profiles of the strains were assessed using the Epsilometer method (E-test). The isolates were subdivided into two groups according to their penicillin susceptibility patterns (penicillin-susceptible and penicillin-intermediate.

E. coli [10] = assay: microbe, parasite or virus in culture; assay type: cell-based; conditions: for MIC50 / MIC: Escherichia coli
E. coli [11] = assay: Urinary bactericidal titers (UBT) and AUBTC of volunteers' urine; assay type: cell-based; conditions: for AUBTC (range): urine after gemifloxacin 320 mg or ofloxacin 400 mg
[12] = test system: Streptococcus pneumoniae and Haemophilus influenzae; assay: MIC by broth microdilution (NCCLS), all isolates pooled; assay type: cell-based
Enterococcus faecalis = assay: MIC by NCCLS broth microdilution, 1100 Japanese clinical isolates 1997-1998; assay type: cell-based; conditions: for MIC90 / MIC50: Enterococcus faecalis
Staphylococcus aureus = assay: microbe, parasite or virus in culture; assay type: cell-based
[13] = parameters: species or system healthy volunteers; conditions: human, in vivo, po
E. faecalis [14] = assay: Urinary bactericidal titers (UBT) and AUBTC of volunteers' urine; assay type: cell-based; conditions: urine after gemifloxacin 320 mg or ofloxacin 400 mg
[15] = S. aureus Laboratory No. 83, inoculum 7.1 CFU 10^5/ml
[16] = S. aureus Laboratory No. 161, inoculum 9.4 CFU 10^5/ml
[17] = S. aureus Laboratory No. 636, inoculum 5.6 CFU 10^5/ml
[18] = E. faecalis Laboratory No. 55, inoculum 6.0 CFU 10^5/ml
[19] = E. faecalis Laboratory No. 60, inoculum 7.0 CFU 10^5/ml
[20] = Penicillin-intermediate S. pneumoniae (n = 24)
[21] = Penicillin-susceptible S. pneumoniae (n = 107)
[22] = Enterococcus faecalis ciprofloxacin resistant (n=15)
[23] = Enterococcus faecalis ciprofloxacin susceptible (n=24)

## CO/N=C1\CN(c2nc3c(cc2F)c(=O)c(C(=O)O)cn3C2CC2)CC1CN (racemic) [Gemifloxacin, (R,S)-7-(3-aminomethyl-4-methoxyiminopyrrolidin-1-yl)-1-cyclopropyl-6-fluoro-4-oxo-1,4-dihydro-1,8-naphthyridine-3-carboxylic acid]
Morganella morganii
  MIC Range: 0.016 to 16 µg/mL
Morganella morganii; read-out: MIC50
  MIC50: 0.063 µg/mL (≈ 0.162 µM)
Morganella morganii; read-out: MIC90
  MIC90: 0.25 µg/mL (≈ 0.642 µM)
K. pneumoniae [1]; K. pneumoniae Laboratory No. 595, inoculum 3.7 CFU 10^5/ml
  MIC: 0.03 µg/mL (≈ 0.077 µM)
K. pneumoniae [1]; Klebsiella pneumoniae, K. pneumoniae Laboratory No. 595, inoculum 3.7 CFU 10^5/ml
  MBC: 0.03 µg/mL (≈ 0.077 µM)
K. pneumoniae [1]; Klebsiella pneumoniae, K. pneumoniae clinical isolate, read-out: MIC
  MIC: 0.03 µg/mL (≈ 0.077 µM)
P. aeruginosa [2]; P. aeruginosa Laboratory No. 568, inoculum 5.6 CFU 10^5/ml
  MIC: 1 µg/mL (≈ 2.57 µM)
P. aeruginosa [2]; Pseudomonas aeruginosa, P. aeruginosa Laboratory No. 568, inoculum 5.6 CFU 10^5/ml
  MBC: 2 µg/mL (≈ 5.14 µM)
P. aeruginosa [2]; Pseudomonas aeruginosa, P. aeruginosa clinical isolate, read-out: MIC
  MIC: 1 µg/mL (≈ 2.57 µM)
S. aureus [3]; [15]
  MBC: 0.008 µg/mL (≈ 0.0205 µM)
  MIC: 0.008 µg/mL (≈ 0.0205 µM)
S. aureus [3]; [16]
  MBC: 0.25 µg/mL (≈ 0.642 µM)
  MIC: 0.25 µg/mL (≈ 0.642 µM)
S. aureus [3]; [17]
  MBC: 2 µg/mL (≈ 5.14 µM)
  MIC: 2 µg/mL (≈ 5.14 µM)
S. aureus [3]; S. aureus isolate (0.008/0.25)
  MIC: 0.008 µg/mL (≈ 0.0205 µM)
S. aureus [3]; S. aureus isolate (0.25/4)
  MIC: 0.25 µg/mL (≈ 0.642 µM)
S. aureus [3]; S. aureus isolate (2/32), quinolone-resistant
  MIC: 2 µg/mL (≈ 5.14 µM)
E. faecalis [4]; [18]
  MBC: 2 µg/mL (≈ 5.14 µM)
  MIC: 0.5 µg/mL (≈ 1.28 µM)
E. faecalis [4]; [19]
  MBC: 0.06 µg/mL (≈ 0.154 µM)
  MIC: 0.06 µg/mL (≈ 0.154 µM)
E. faecalis [4]; E. faecalis isolate (0.06/2)
  MIC: 0.06 µg/mL (≈ 0.154 µM)
E. faecalis [4]; E. faecalis isolate (0.5/32)
  MIC: 0.5 µg/mL (≈ 1.28 µM)
P. mirabilis [5]; P. mirabilis Laboratory No. 414, inoculum 2.5 CFU 10^5/ml
  MIC: 0.125 µg/mL (≈ 0.321 µM)
P. mirabilis [5]; Proteus mirabilis
  MIC: 0.125 µg/mL (≈ 0.321 µM)
P. mirabilis [5]; Proteus mirabilis, P. mirabilis Laboratory No. 414, inoculum 2.5 CFU 10^5/ml
  MBC: 0.25 µg/mL (≈ 0.642 µM)
S. aureus [6]; S. aureus (13) Laboratory No. 636
  AUBTC (range): 108 (0-408)
S. aureus [6]; S. aureus (16) Laboratory No. 83
  AUBTC (range): 540 (246-834)
S. aureus [6]; S. aureus (16) Laboratory No. 161
  AUBTC (range): 60 (0-144)
Enterobacter spp.; Enterobacter, read-out: MIC50
  MIC50: 0.06 µg/mL (≈ 0.154 µM)
Enterobacter spp.; Enterobacter, read-out: MIC90
  MIC90: 16 µg/mL (≈ 41.1 µM)
Enterobacter spp.
  MIC Range: ≤0.03 to 64 µg/mL
Serratia marcescens; Serratia marcescens
  MIC50: 0.125 µg/mL (≈ 0.321 µM)
Serratia marcescens; Serratia marcescens (n=30)
  MIC90: 0.5 µg/mL (≈ 1.28 µM)
  MIC Range: 0.063 to 128 µg/mL
P. mirabilis [7]
  AUBTC (range): 261 (120-510)
P. aeruginosa [8]
  AUBTC (range): 48 (12-300)
K. pneumoniae [9]
  AUBTC (range): 321 (72-564)
Streptococcus pneumoniae; [20]
  MIC Range: 0.004-0.125
  MIC50: 0.064 µg/mL (≈ 0.164 µM)
  MIC90: 0.23 µg/mL (≈ 0.591 µM)
Streptococcus pneumoniae; [21]
  MIC Range: 0.002-0.19
  MIC50: 0.032 µg/mL (≈ 0.0822 µM)
  MIC90: 0.064 µg/mL (≈ 0.164 µM)
E. coli [10]; E. coli (13 strains), quinolone-resistant
  MIC90: 0.25 µg/mL (≈ 0.642 µM)
E. coli [10]; E. coli (13 strains), quinolone-resistant, read-out: MIC50
  MIC50: 0.031 µg/mL (≈ 0.0796 µM)
E. coli [10]; E. coli KU1029, mutant type SP (spontaneous mutant in the DNA gyrase)
  MIC: 0.031 µg/mL (≈ 0.0796 µM)
E. coli [10]; E. coli KU1030, mutant type SP
  MIC: 0.031 µg/mL (≈ 0.0796 µM)
E. coli [10]; E. coli KU1031, mutant type SP
  MIC: 0.031 µg/mL (≈ 0.0796 µM)
E. coli [10]; E. coli KU1032, mutant type SP
  MIC: 0.125 µg/mL (≈ 0.321 µM)
E. coli [10]; E. coli KU1033, mutant type SP
  MIC: 0.016 µg/mL (≈ 0.0411 µM)
E. coli [10]; E. coli KU1034, mutant type GA (DNA gyrase A)
  MIC: 0.25 µg/mL (≈ 0.642 µM)
E. coli [10]; E. coli KU1035, mutant type GA (DNA gyrase A)
  MIC: 0.25 µg/mL (≈ 0.642 µM)
E. coli [10]; E. coli KU1036, mutant type GB (DNA gyrase B)
  MIC: 0.031 µg/mL (≈ 0.0796 µM)
E. coli [10]; E. coli KU1038, mutant type SP
  MIC: 0.031 µg/mL (≈ 0.0796 µM)
E. coli [10]; E. coli KU1039, mutant type SP
  MIC: 0.125 µg/mL (≈ 0.321 µM)
E. coli [10]; E. coli KU1040, mutant type SP
  MIC: ≤ 0.008 µg/mL
E. coli [10]; E. coli KU1041, mutant type SP
  MIC: 0.25 µg/mL (≈ 0.642 µM)
E. coli [10]; E. coli KU1042, mutant type SP
  MIC: 0.063 µg/mL (≈ 0.162 µM)
E. coli [10]; E. coli mutated in the DNA gyrase
  MIC50: 0.032 µg/mL (≈ 0.0822 µM)
E. coli [11]; E. coli (16) ATCC 25922
  AUBTC (range): 546 (174-816)
E. coli [11]; E. coli (16) Laboratory No. 523
  AUBTC (range): 237(48-384)
E. coli [11]; reference strain E. coli ATCC 25922, 320 mg gemifloxacin / 400 mg ofloxacin
  time for which median UBTs exceed 0: 5 days
[12]; 380 isolates (235 S. pneumoniae, 145 H. influenzae)
  concentration at which all microorganisms were inhibited: 0.06 µg/mL
[12]; All 602 isolates
  concentration at which all isolates were inhibited: 0.12 µg/mL
[12]; all (380) isolates tested (235 S. pneumoniae, 145 H. influenzae)
  MIC90: 0.03 µg/mL (≈ 0.077 µM)
[12]; all isolates tested (602)
  MIC90: 0.06 µg/mL (≈ 0.154 µM)
Enterococcus faecalis
  MIC90: 0.125 µg/mL (≈ 0.321 µM)
Enterococcus faecalis; [22]
  MIC Range: 0.063 to 32 µg/mL
  MIC50: 1 µg/mL (≈ 2.57 µM)
Enterococcus faecalis; [23]
  MIC Range: 0.063 to 0.125 µg/mL
  MIC50: 0.063 µg/mL (≈ 0.162 µM)
Enterococcus faecalis; Enterococcus faecalis ciprofloxacin resistant (n=15), read-out: MIC90
  MIC90: 8 µg/mL (≈ 20.5 µM)
Staphylococcus aureus; Methicillin-resistant (38)
  MIC Range: 0.031 to 32 µg/mL
Staphylococcus aureus; Methicillin-susceptible (9)
  MIC Range: 0.031 to 0.25 µg/mL
Staphylococcus aureus; S. aureus KU2240 with a single mutation in NorA, DNA gyrase or topoisomerase IV
  increase of MIC: 2-4 fold
Staphylococcus aureus; Staphylococcus aureus, Methicillin-susceptible (9), read-out: MIC90
  MIC90: 0.25 µg/mL (≈ 0.642 µM)
Staphylococcus aureus; Staphylococcus aureus, S. aureus KU2240, mutant type Wild (wild strain)
  MIC: 0.031 µg/mL (≈ 0.0796 µM)
Staphylococcus aureus; Staphylococcus aureus, S. aureus KU2240, read-out: MIC
  MIC: 0.031 µg/mL (≈ 0.0796 µM)
Staphylococcus aureus; Staphylococcus aureus, S. aureus KU2241, mutant type NorA (efflux-mediated quinolone resistant)
  MIC: 0.063 µg/mL (≈ 0.162 µM)
Staphylococcus aureus; Staphylococcus aureus, S. aureus KU2242, mutant type T (DNA topoisomerase IV)
  MIC: 0.063 µg/mL (≈ 0.162 µM)
Staphylococcus aureus; Staphylococcus aureus, S. aureus KU2244, mutant type G (DNA gyrase)
  MIC: 0.125 µg/mL (≈ 0.321 µM)
Staphylococcus aureus; Staphylococcus aureus, S. aureus KU2246, mutant type T (DNA topoisomerase IV)
  MIC: 0.125 µg/mL (≈ 0.321 µM)
[13]
  tolerability: well tolerated
E. faecalis [14]; E. faecalis (13) Laboratory No. 55
  AUBTC (range): 39 (0-102)
E. faecalis [14]; E. faecalis (16) Laboratory No. 60
  AUBTC (range): 246 (96-516)
